Drawing on publication PMC10604323, “Cannabidiol Modulates M-Type K^+ and Hyperpolarization-Activated Cation Currents” (Biomedicines, 2023), this text covers IC50 for 1 molecule.

Test [1] has as its system T1, M-type K+ current (IK(M)) of GH3 cells; KV7.2, KV7.3 and KV7.5 channels.
T1 construct: gene Kcnq2; native channels in GH3 cells; subunit composition not determined
Kind of test: whole-cell patch clamp. In kind it is cell-based. Particulars: high-K+ Ca2+-free solution with 1 μM TTX, 1 s step from -50 to -10 mV, pH 7.4, 20-25 °C, native current. From the text:
whole-cell patch clamp on M-type K+ current (IK(M)) of GH3 cells; KV7.2, KV7.3 and KV7.5 channels | concentration–response curve for the CBD-induced inhibition of the density of IK(M)
(In patch-clamp work, channel activity is measured electrically.)

Test [2] deals with T2, hyperpolarization-activated cation current (Ih) of GH3 cells; HCN2, HCN3, and a combination of HCN2 and HCN3.
T2 construct: native channels in GH3 cells; subunit composition not determined
Kind of test: whole-cell patch clamp. In kind it is cell-based. Particulars: Ca2+-free Tyrode's solution with 0.5 mM CdCl2 and 1 μM TTX, 2 s step from -40 to -110 mV, pH 7.4, 20-25 °C, native current.

One may read the IC50 as the concentration that gives 50% inhibition. As to `C=C(C)[C@@H]1CCC(C)=C[C@H]1c1c(O)cc(CCCCC)cc1O` [Cannabidiol, 2-[(1R,6R)-3-methyl-6-(prop-1-en-2-yl)cyclohex-2-en-1-yl]-5-pentylbenzene-1,3-diol], the IC50 in test [1] was found to be 3.6 µM; in test [2], 3.3 µM.
